Measurements taken from US12285455B2, “Controlled-release and stratified cyclodextrin inclusion complex vehicles” (CZAP RESEARCH AND DEVELOPMENT, LLC., priority 2016, dated 2025).

Tested on: myelofibrosis
Assay: treatment of myelofibrosis, case history
Type: in vivo, human
Conditions: following initiation of treatment; approximately every 10 days before treatment
Description: This example illustrates the treatment of symptoms associated with myelofibrosis. A patient suffering from myelofibrosis was treated with a quercetin CD formulation. The formulation was prepared from a powder of quercetin (Glanbia Nutritionals) formed as an inclusion complex with gamma cyclodextrin, dried and mixed with amylase powder. At the initiation of quercetin CD treatment, the patient was in need of blood transfusions approximately every 10 days. Following initiation of the quercetin CD treatment, the patient was able to go 20 days between transfusions.

## O=c1c(O)c(-c2ccc(O)c(O)c2)oc2cc(O)cc(O)c12 [quercetin]
  interval between blood transfusions: did not get this result
